# Results published in patent US20100234238A1, “METHOD FOR PROFILING KINASE INHIBITORS” (Janssen Pharmaceutica N V, priority 2006, published 2010).
# System: tyrosine kinase activity in xenograft tumor lysates
# Test: PAMCHIP96 (140-peptide array) profiling of xenograft tumor lysates in absence or presence of MTKI
# Format: biochemical
# Settings: 5 μM
# Description: 100 mg of frozen tumor or tissue blocks, or sections, are lysed in 1 ml of M-PER buffer (PIERCE) containing phosphatase and protease inhibitors (HALT, PIERCE). The suspension is mixed using a ULTRA-TURRAX blender (IKA werke), and centrifuged twice for 10 minutes at 12 000×g. Supernatant lysates are filtered through a 0.2 micrometer filter (Anotop 0.2 μm anopore filter; Whatmann). Lysates are flash frozen in liquid nitrogen and stored at −80C.
# Just prior to the PAMCHIP experiment, total protein content is quantitated in the lysates and lysates are diluted to 1 mg/ml in a total volume of 200 μl, with M-PER phosphatase and protease inhibitors (HALT, PIERCE). 10 μg of total lysate (corresponding to 10 μl) will be used per well on the PAMCHIP96.
# To all 200 μl lysates 10 units of benzonase (Novagen) is added and lysates are further incubated for 30 min on ice and next centrifuged for 10 minutes at 12 000×g. The supernatant is then 1:1 diluted with compound or DMSO diluted to the appropriate concentration in water, and lysates are further incubated exactly 60 min on ice. Meanwhile, a PAMCHIP96 tyrosine peptide chip (PAMGENE) is blocked with 2% BSA (filtered through a 0.2 μm anopore filter; Whatmann) using the standard setting of a PAMSTATION96 (PAMGENE).
# The composition of the kinase buffer is as follows: 1×ABL buffer (NEB), 0.5 mg/ml BSA (from 10 mg/ml NEB stock), 100 μM ATP (dissolved and diluted in 1×ABL buffer), 5 μg/ml PY20-FITC (ExAlpha Biologicals, azide-free preparation). A twofold concentrated kinase buffer is prepared chilled on ice, DMSO or compound is added as appropriate, and the solution is added 1:1 to the (compound treated) ice cold lysates, and immediately applied to a tyrosine peptide PAMCHIP96. The assay is run on a PAMSTATION96 according to standard procedures: after loading of the plate, solution is pumped once onto the wells, a first exposure is read (150 mSec) and then a kinetic reading program (reading every 5 min for 150 mSec) is run for 60 min. Lysates are run in 6 technical replicates for each condition; replicates are always applied horizontally next to each other to avoid vertical strip effects of the chip.
# The data (spot images) are further quantified and linked to the peptide identities using EVOLVE PAMGRID software (PAMGENE). The quantified data are then fit to a curve using CurveFitHT software (PAMGENE) using the Vinip2 curve fitting algorithm, applied on the first 30 min of the assay; the initial velocity is derived at the first kinetic time point read. All subsequent data analyses were done on initial velocities (Vini) using the software packages Omniviz and R (Ihaka, R. and Gentlemen, R. (1996) R: a language for data analysis and graphics. J. Comput. Graph. Stat., 5, 299-314).
# After replacing the Vini's lower than 0.1 by 0.1, all Vini's were log 2-transformed to approach normality. […] This test was done for each peptide separately using a mixed model (Littell, R. C., Milliken, G. A., Stroup, W. W., Wolfinger, R. D. 1996. SAS system for mixed models. Cary, N. C.: SAS Institute Inc.) allowing the incorporation of both technical variation (i.e., the variation across replicates) and biological variation (i.e., the variation among the various responding and non-responding cell lines or tumors). Variation between cell lines or tumors in Vini and in treatment effect on Vini was modeled respectively by random intercepts and random compound effects per cell line or tumor, nested in response status. The difference in compound-induced reduction in Vini between responding and non-responding cell lines or tumors was tested through the interaction between compound treatment and response status, both modeled as fixed effects.
smiles,measurement,setting,value
"COc1cc2ncnc3c2cc1OCCCCCN(C)Cc1ccc(Br)cc1N3 [MTKI, 4,6-ethanediylidenepyrimido[4,5-b][6,1,12]benzoxadiazacyclopentadecine, 17-bromo-8,9,10,11,12,13,14,19-octahydro-20-methoxy-13-methyl-]",ratio of initial velocity of peptide phosphorylation,"H322 xenograft tumor lysate, CDK7_157_169_S164",0.77
same,ratio of initial velocity of peptide phosphorylation,"H322 xenograft tumor lysate, EPHB1_921_933_Y928",0.75
same,ratio of initial velocity of peptide phosphorylation,"H322 xenograft tumor lysate, FAK1_569_581_Y576/Y577",0.82
same,ratio of initial velocity of peptide phosphorylation,"H322 xenograft tumor lysate, GSK3B_209_221_Y216",0.77
same,ratio of initial velocity of peptide phosphorylation,"H322 xenograft tumor lysate, K2C6E_53_65_S59",0.80
same,ratio of initial velocity of peptide phosphorylation,"H322 xenograft tumor lysate, MBP_259_271_Y261/Y268/S266",0.65
same,ratio of initial velocity of peptide phosphorylation,"H322 xenograft tumor lysate, MK10_216_228_T221/Y223",0.68
same,ratio of initial velocity of peptide phosphorylation,"H322 xenograft tumor lysate, NCF1_313_325_S315/S320",0.78
same,ratio of initial velocity of peptide phosphorylation,"H322 xenograft tumor lysate, NTRK2_699_711_Y702/Y706/Y707",0.76
same,ratio of initial velocity of peptide phosphorylation,"H322 xenograft tumor lysate, P2AB_297_309_T304/Y307",0.77
same,ratio of initial velocity of peptide phosphorylation,"H322 xenograft tumor lysate, PGFRB_572_584_Y579/Y581",0.67
same,ratio of initial velocity of peptide phosphorylation,"H322 xenograft tumor lysate, RAF1_331_343_S337/S338/Y339/Y340",0.79
same,ratio of initial velocity of peptide phosphorylation,"H322 xenograft tumor lysate, RB_804_816_S807/S811",0.75
same,ratio of initial velocity of peptide phosphorylation,"H322 xenograft tumor lysate, SYN1_2_14_S9",0.78
same,ratio of initial velocity of peptide phosphorylation,"H322 xenograft tumor lysate, TYRO3_679_691_Y686",0.80
same,ratio of initial velocity of peptide phosphorylation,"H322 xenograft tumor lysate, VEGFR2_944_956_Y951",0.75
same,ratio of initial velocity of peptide phosphorylation,"H322 xenograft tumor lysate, VINC_815_827_Y821",0.76
same,ratio of initial velocity of peptide phosphorylation,"H3255 xenograft tumor lysate, CDK7_157_169_S164",0.45
same,ratio of initial velocity of peptide phosphorylation,"H3255 xenograft tumor lysate, EPHB1_921_933_Y928",0.44
same,ratio of initial velocity of peptide phosphorylation,"H3255 xenograft tumor lysate, FAK1_569_581_Y576/Y577",0.48
same,ratio of initial velocity of peptide phosphorylation,"H3255 xenograft tumor lysate, GSK3B_209_221_Y216",0.57
same,ratio of initial velocity of peptide phosphorylation,"H3255 xenograft tumor lysate, K2C6E_53_65_S59",0.56
same,ratio of initial velocity of peptide phosphorylation,"H3255 xenograft tumor lysate, MBP_259_271_Y261/Y268/S266",0.47
same,ratio of initial velocity of peptide phosphorylation,"H3255 xenograft tumor lysate, MK10_216_228_T221/Y223",0.31
same,ratio of initial velocity of peptide phosphorylation,"H3255 xenograft tumor lysate, NCF1_313_325_S315/S320",0.73
same,ratio of initial velocity of peptide phosphorylation,"H3255 xenograft tumor lysate, NTRK2_699_711_Y702/Y706/Y707",0.48
same,ratio of initial velocity of peptide phosphorylation,"H3255 xenograft tumor lysate, P2AB_297_309_T304/Y307",0.66
same,ratio of initial velocity of peptide phosphorylation,"H3255 xenograft tumor lysate, PGFRB_572_584_Y579/Y581",0.66
same,ratio of initial velocity of peptide phosphorylation,"H3255 xenograft tumor lysate, RAF1_331_343_S337/S338/Y339/Y340",0.53
same,ratio of initial velocity of peptide phosphorylation,"H3255 xenograft tumor lysate, RB_804_816_S807/S811",0.52
same,ratio of initial velocity of peptide phosphorylation,"H3255 xenograft tumor lysate, SYN1_2_14_S9",0.50
same,ratio of initial velocity of peptide phosphorylation,"H3255 xenograft tumor lysate, TYRO3_679_691_Y686",0.51
same,ratio of initial velocity of peptide phosphorylation,"H3255 xenograft tumor lysate, VEGFR2_944_956_Y951",0.52
same,ratio of initial velocity of peptide phosphorylation,"H3255 xenograft tumor lysate, VINC_815_827_Y821",0.40
same,ratio of initial velocity of peptide phosphorylation,"SUM149 xenograft tumor lysate, EPHB1_921_933_Y928",0.85
same,ratio of initial velocity of peptide phosphorylation,"SUM149 xenograft tumor lysate, FAK1_569_581_Y576/Y577",0.94
same,ratio of initial velocity of peptide phosphorylation,"SUM149 xenograft tumor lysate, GSK3B_209_221_Y216",0.91
same,ratio of initial velocity of peptide phosphorylation,"SUM149 xenograft tumor lysate, K2C6E_53_65_S59",0.86
same,ratio of initial velocity of peptide phosphorylation,"SUM149 xenograft tumor lysate, MBP_259_271_Y261/Y268/S266",1.04
same,ratio of initial velocity of peptide phosphorylation,"SUM149 xenograft tumor lysate, MK10_216_228_T221/Y223",0.75
same,ratio of initial velocity of peptide phosphorylation,"SUM149 xenograft tumor lysate, NCF1_313_325_S315/S320",0.94
same,ratio of initial velocity of peptide phosphorylation,"SUM149 xenograft tumor lysate, NTRK2_699_711_Y702/Y706/Y707",0.85
same,ratio of initial velocity of peptide phosphorylation,"SUM149 xenograft tumor lysate, P2AB_297_309_T304/Y307",0.87
same,ratio of initial velocity of peptide phosphorylation,"SUM149 xenograft tumor lysate, PGFRB_572_584_Y579/Y581",0.69
same,ratio of initial velocity of peptide phosphorylation,"SUM149 xenograft tumor lysate, RAF1_331_343_S337/S338/Y339/Y340",0.99
same,ratio of initial velocity of peptide phosphorylation,"SUM149 xenograft tumor lysate, RB_804_816_S807/S811",0.83
same,ratio of initial velocity of peptide phosphorylation,"SUM149 xenograft tumor lysate, SYN1_2_14_S9",1.01
same,ratio of initial velocity of peptide phosphorylation,"SUM149 xenograft tumor lysate, TYRO3_679_691_Y686",1.03
same,ratio of initial velocity of peptide phosphorylation,"SUM149 xenograft tumor lysate, VEGFR2_944_956_Y951",0.86
same,ratio of initial velocity of peptide phosphorylation,"SUM149 xenograft tumor lysate, VINC_815_827_Y821",0.75
